Here are results for 11 molecules from patent US20230139171A1 (SITA Information Networking Computing UK Limited, priority 2019, published 2023).

Common to all, as to type: cell-based
Test [1] has as its target T1, human TLR8 (Homo sapiens, UniProt Q9NR97).
T1 construct: host or cells: HEK-Blue cells
T1 sequence (Q9NR97 27-1041): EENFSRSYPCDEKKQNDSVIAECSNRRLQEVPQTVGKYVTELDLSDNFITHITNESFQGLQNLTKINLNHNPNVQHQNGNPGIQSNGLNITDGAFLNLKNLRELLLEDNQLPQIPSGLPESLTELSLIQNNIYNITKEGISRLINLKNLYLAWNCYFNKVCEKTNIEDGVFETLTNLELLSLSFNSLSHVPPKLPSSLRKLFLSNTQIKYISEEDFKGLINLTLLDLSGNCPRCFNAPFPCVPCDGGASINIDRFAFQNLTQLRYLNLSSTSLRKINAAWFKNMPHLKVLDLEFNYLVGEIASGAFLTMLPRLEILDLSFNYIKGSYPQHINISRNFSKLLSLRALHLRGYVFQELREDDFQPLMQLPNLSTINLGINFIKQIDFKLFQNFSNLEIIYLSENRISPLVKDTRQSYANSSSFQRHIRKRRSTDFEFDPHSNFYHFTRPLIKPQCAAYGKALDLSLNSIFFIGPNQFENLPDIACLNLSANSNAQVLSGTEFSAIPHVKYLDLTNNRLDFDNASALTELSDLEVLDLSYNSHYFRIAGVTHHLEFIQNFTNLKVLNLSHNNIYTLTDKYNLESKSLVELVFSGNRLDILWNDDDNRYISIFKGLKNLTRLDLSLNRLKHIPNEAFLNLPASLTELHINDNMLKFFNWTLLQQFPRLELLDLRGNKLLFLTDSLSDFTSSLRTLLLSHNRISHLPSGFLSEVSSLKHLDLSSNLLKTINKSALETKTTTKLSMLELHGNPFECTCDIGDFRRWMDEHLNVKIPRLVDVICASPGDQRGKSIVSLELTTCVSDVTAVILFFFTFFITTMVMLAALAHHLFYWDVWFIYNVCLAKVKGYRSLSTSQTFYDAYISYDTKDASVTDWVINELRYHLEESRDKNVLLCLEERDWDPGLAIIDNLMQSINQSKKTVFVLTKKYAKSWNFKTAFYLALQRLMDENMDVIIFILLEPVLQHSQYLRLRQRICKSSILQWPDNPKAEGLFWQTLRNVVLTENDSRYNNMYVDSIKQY
In words: TLR8 inhibition reporter assay (HEK-Blue cells, SEAP reporter, R848 stimulation). The conditions noted are these: HEK-Blue cells overexpressing human TLR8, SEAP reporter, R848 15.9 μM; read-out: TLR8 IC50. A digest of the protocol: (§1)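 Compound treatment: 30 min, RT, 0.05 nM–50 μM final. Agonist: TLR7 gardiquimod 7.5 μM; TLR8 R848 15.9 μM; TLR9 ODN2006 5 nM. Incubation 22 h, 37 °C, 5% CO2. Readout SEAP, HEK-Blue Detection.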
A general note: A reporter such as luciferase makes a cellular process visible.

The target in test [2] is T2, human TLR9 (Homo sapiens, UniProt Q9NR96).
T2 construct: host or cells: HEK-Blue cells
T2 sequence (Q9NR96 26-1032): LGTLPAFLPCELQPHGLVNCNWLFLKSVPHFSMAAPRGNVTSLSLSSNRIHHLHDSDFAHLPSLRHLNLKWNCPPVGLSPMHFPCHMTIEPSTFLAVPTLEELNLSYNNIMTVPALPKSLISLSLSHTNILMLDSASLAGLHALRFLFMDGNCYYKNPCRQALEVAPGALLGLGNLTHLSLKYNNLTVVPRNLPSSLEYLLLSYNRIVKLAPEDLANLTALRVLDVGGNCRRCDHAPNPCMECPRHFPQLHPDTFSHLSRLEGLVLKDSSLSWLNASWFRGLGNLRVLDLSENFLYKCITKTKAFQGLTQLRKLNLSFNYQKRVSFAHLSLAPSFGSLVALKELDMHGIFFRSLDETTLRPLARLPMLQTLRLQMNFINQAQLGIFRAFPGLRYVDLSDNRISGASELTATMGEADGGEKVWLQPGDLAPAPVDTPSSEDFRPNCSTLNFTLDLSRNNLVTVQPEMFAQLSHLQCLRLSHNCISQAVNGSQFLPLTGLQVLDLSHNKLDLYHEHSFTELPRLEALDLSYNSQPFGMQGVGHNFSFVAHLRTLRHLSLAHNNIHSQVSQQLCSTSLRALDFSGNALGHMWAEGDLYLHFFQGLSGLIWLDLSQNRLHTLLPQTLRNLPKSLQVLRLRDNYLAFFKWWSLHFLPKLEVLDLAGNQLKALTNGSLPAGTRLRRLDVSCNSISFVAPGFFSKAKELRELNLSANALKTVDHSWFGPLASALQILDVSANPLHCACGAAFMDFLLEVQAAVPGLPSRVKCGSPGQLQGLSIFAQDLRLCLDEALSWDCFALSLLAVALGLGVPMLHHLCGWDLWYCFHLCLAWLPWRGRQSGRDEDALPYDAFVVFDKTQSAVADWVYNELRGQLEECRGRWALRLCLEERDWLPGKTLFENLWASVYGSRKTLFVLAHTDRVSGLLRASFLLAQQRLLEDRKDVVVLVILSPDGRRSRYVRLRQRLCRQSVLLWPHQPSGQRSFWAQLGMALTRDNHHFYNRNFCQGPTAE
In words: TLR9 inhibition reporter assay (HEK-Blue cells, SEAP reporter, ODN2006 stimulation). The conditions noted are these: HEK-Blue cells overexpressing human TLR9, SEAP reporter, ODN2006 5 nM. A digest of the protocol: as §1

For test [3], the target named is T3, human TLR7 (Homo sapiens, UniProt Q9NYK1).
T3 construct: host or cells: HEK-Blue cells
T3 sequence (Q9NYK1 27-1049): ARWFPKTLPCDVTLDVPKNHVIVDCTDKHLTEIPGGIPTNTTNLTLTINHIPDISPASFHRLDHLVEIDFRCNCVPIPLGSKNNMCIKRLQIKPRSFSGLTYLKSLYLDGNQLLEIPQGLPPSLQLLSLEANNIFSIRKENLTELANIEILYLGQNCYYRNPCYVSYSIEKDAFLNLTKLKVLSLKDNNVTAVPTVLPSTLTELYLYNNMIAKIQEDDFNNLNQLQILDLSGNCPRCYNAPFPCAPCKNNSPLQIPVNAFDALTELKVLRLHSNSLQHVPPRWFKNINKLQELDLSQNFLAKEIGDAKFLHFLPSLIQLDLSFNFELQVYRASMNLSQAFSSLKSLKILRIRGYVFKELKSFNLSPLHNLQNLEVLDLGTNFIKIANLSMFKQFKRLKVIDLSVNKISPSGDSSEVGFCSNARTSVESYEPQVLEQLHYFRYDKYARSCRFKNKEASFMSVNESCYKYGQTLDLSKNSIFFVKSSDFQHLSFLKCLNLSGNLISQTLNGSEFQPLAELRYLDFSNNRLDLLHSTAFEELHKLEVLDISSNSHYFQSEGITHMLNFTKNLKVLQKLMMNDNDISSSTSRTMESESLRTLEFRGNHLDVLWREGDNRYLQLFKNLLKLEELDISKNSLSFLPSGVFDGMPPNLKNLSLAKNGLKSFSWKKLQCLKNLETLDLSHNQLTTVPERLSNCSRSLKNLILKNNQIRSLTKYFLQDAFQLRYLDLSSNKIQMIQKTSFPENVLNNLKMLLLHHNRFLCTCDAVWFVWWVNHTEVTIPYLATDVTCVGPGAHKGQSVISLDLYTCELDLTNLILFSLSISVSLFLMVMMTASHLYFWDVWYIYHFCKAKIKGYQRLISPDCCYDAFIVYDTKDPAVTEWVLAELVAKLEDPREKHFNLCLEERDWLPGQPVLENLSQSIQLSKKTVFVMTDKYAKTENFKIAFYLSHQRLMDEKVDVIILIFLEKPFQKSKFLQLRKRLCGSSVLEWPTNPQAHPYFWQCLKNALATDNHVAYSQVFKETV
In words: TLR7 inhibition reporter assay (HEK-Blue cells, SEAP reporter, gardiquimod stimulation). The conditions noted are these: HEK-Blue cells overexpressing human TLR7, SEAP reporter, gardiquimod 7.5 μM; read-out: TLR7 IC50. In a few lines: as §1

On to `Cc1cc(-c2[nH]c3sc(C4CCC(NCC5(CO)CC5)CC4)nc3c2C(C)C)cn2ncnc12` (single isomer, unassigned) [Example 143, (1-(((4-(6-isopropyl-5-(8-methyl-[1,2,4]triazolo[1,5-a]pyridin-6-yl)-4H-pyrrolo[3,2-d]thiazol-2-yl)cyclohexyl)amino)methyl)cyclopropyl)methanol], for which the IC50 was determined as 19.6 nM in test [1], 9280 nM in test [2] and 5.34 nM in test [3].
As for `Cc1cc2ncnn2cc1-c1[nH]c2sc(C3CCC(NC4(C)COC4)CC3)nc2c1C(C)C` (single isomer, unassigned) [Example 144, N-(4-(6-isopropyl-5-(7-methyl-[1,2,4]triazolo[1,5-a]pyridin-6-yl)-4H-pyrrolo[3,2-d]thiazol-2-yl)cyclohexyl)-3-methyloxetan-3-amine], the values for the IC50 in test [1], in test [2] and in test [3] were 3.56 nM, 15200 nM and 7.26 nM, respectively.
For `Cc1cc2ncnn2cc1-c1[nH]c2sc(C3CCC(NC4(C)COC4)CC3)nc2c1C(C)C` (single isomer, unassigned) [Example 145, N-(4-(6-isopropyl-5-(7-methyl-[1,2,4]triazolo[1,5-a]pyridin-6-yl)-4H-pyrrolo[3,2-d]thiazol-2-yl)cyclohexyl)-3-methyloxetan-3-amine] the same measures were 41.6 nM, greater than 50000 nM and 60.3 nM.
The like results for `Cc1cc2ncnn2cc1-c1[nH]c2sc(C3CCC(N4CCCOCC4)CC3)nc2c1C(C)C` (single isomer, unassigned) [Example 146, 4-(4-(6-isopropyl-5-(7-methyl-[1,2,4]triazolo[1,5-a]pyridin-6-yl)-4H-pyrrolo[3,2-d]thiazol-2-yl)cyclohexyl)-1,4-oxazepane] were, in that order, 0.92 nM, 16300 nM and 19.7 nM.
The like results for `Cc1cc2ncnn2cc1-c1[nH]c2sc(C3CCC(N4CCCOCC4)CC3)nc2c1C(C)C` (single isomer, unassigned) [Example 147, 4-(4-(6-isopropyl-5-(7-methyl-[1,2,4]triazolo[1,5-a]pyridin-6-yl)-4H-pyrrolo[3,2-d]thiazol-2-yl)cyclohexyl)-1,4-oxazepane] were, in that order, 5.67 nM, 18800 nM and 90.1 nM.
As for `Cc1cc2ncnn2cc1-c1[nH]c2sc(C3CCC(N4CCNC(=O)C4)CC3)nc2c1C(C)C` (single isomer, unassigned) [Example 148, 4-(4-(6-isopropyl-5-(7-methyl-[1,2,4]triazolo[1,5-a]pyridin-6-yl)-4H-pyrrolo[3,2-d]thiazol-2-yl)cyclohexyl)piperazin-2-one], the 50% inhibitory concentration (IC50) in test [1] was 9.93 nM; in test [2] it was greater than 50000 nM; in test [3], 11.8 nM.
For `Cc1cc2ncnn2cc1-c1[nH]c2sc(C3CCC(N4CCNC(=O)C4)CC3)nc2c1C(C)C` (single isomer, unassigned) [Example 149, 4-(4-(6-isopropyl-5-(7-methyl-[1,2,4]triazolo[1,5-a]pyridin-6-yl)-4H-pyrrolo[3,2-d]thiazol-2-yl)cyclohexyl)piperazin-2-one] the same measures were 98.5 nM, greater than 50000 nM and 108 nM.
For `COC1CN(C2CCC(c3nc4c(C(C)C)c(-c5cn6ncnc6cc5C)[nH]c4s3)CC2)C1` (single isomer, unassigned) [Example 150, 6-isopropyl-2-(4-(3-methoxyazetidin-1-yl)cyclohexyl)-5-(7-methyl-[1,2,4]triazolo[1,5-a]pyridin-6-yl)-4H-pyrrolo[3,2-d]thiazole] the same measures were 0.39 nM, 2830 nM and 0.57 nM.
On to `COC1CN(C2CCC(c3nc4c(C(C)C)c(-c5cn6ncnc6cc5C)[nH]c4s3)CC2)C1` (single isomer, unassigned) [Example 151, 6-isopropyl-2-(4-(3-methoxyazetidin-1-yl)cyclohexyl)-5-(7-methyl-[1,2,4]triazolo[1,5-a]pyridin-6-yl)-4H-pyrrolo[3,2-d]thiazole], for which the results for the IC50 in test [1], in test [2] and in test [3] were 60 nM, 23400 nM and 49.2 nM, respectively.
For `Cc1cc2ncnn2cc1-c1[nH]c2sc(C3CCC(NC4COC4)CC3)nc2c1C(C)C` (single isomer, unassigned) [Example 152, N-(4-(6-isopropyl-5-(7-methyl-[1,2,4]triazolo[1,5-a]pyridin-6-yl)-4H-pyrrolo[3,2-d]thiazol-2-yl)cyclohexyl)oxetan-3-amine] the same measures were 31.6 nM, 20900 nM and 13.7 nM.
For `Cc1cc2ncnn2cc1-c1[nH]c2sc(C3CCC(NC4COC4)CC3)nc2c1C(C)C` (single isomer, unassigned) [Example 153, N-(4-(6-isopropyl-5-(7-methyl-[1,2,4]triazolo[1,5-a]pyridin-6-yl)-4H-pyrrolo[3,2-d]thiazol-2-yl)cyclohexyl)oxetan-3-amine] the same measures were 6.62 nM, 22300 nM and 27.8 nM.

For orientation: IC50 means the concentration at which inhibition is half-maximal.
